Source: article PMC12257073 (Cancer Research Communications, 2025)
“And” between values parts separate entries of the source, which are not always exact repeats. Equal entries are not always repeated. Where two headings read alike, the source gives them in different places.

System: newly diagnosed AML with mutations in TP53 and/or complex karyotype
[1] = TP53-mutated patients, TP-0903 + decitabine, n = 20
[2] = group 1, 37 mg TP-0903 + decitabine, 15 patients
[3] = group 1, TP-0903 37 mg/day + decitabine, n = 15
[4] = group 2, 25 mg TP-0903 + decitabine, 12 patients
[5] = group 2, TP-0903 25 mg/day + decitabine, n = 12
[6] = overall, TP-0903 + decitabine, n = 27

Description: Dose-limiting toxicities (DLT) were evaluated to establish the dose brought forward for an expansion cohort (phase 2).
The primary endpoint was achievement of CR within six cycles of therapy. Secondary endpoints included toxicity, duration of response, OS, and the proportion of eligible patients who effectively transitioned to allogeneic stem cell transplantation. Exploratory endpoints included pharmacokinetics (PK), correlative genetic, and biochemical data; correlations between morphologic remission, spectral flow cytometry, and mutational remission; and duration of remission or survival. […] Adverse events (AE) were graded according to the NCI Common Terminology Criteria for Adverse Events version 4.0 ([27]).
The phase 1b portion of the study used a standard 3 + 3 design with dose-escalation based on DLT. […] In the first stage, if four or more of 12 patients achieved CR, then an additional 21 patients would be enrolled for a total of 33 patients. At the end of the study, if 12 or more of all 33 patients achieved CR, then the null hypothesis would be rejected.

CN1CCN(Cc2ccc(Nc3ncc(Cl)c(Nc4ccccc4S(=O)(=O)N(C)C)n3)cc2)CC1.O=C(O)C(O)C(O)C(=O)O.O=C(O)C(O)C(O)C(=O)O [TP-0903, 2-(5-chloro-2-(4-((4-methylpiperazin-1-yl)methyl)phenylamino)pyrimidin-4-yl)amino-N,N-dimethylbenzene-1-sulfonamide di-tartrate salt]
Best response by 6 cycles: CR [1]: 5 (25) no. (%)
Best response by 6 cycles: CRh [1]: 4 (20) no. (%)
Best response by 6 cycles: CRi [1]: 0 (0) no. (%)
Best response by 6 cycles: MLFS [1]: 2 (10) no. (%)
Best response by 6 cycles: NE (not evaluable) [1]: 4 (20) no. (%)
Best response by 6 cycles: SD [1]: 4 (20) no. (%)
Best response by 6 cycles: Treatment failure [1]: 1 (5) no. (%)
Overall composite remission rate (CR/CRh/CRi) [1]: 9 (45, 23.1–68.5) no. (%, 95% CI)
Overall response rate (CR/CRh/CRi/MLFS) [1]: 11 (55, 31.5–76.9) no. (%, 95% CI)
CR in patients without a TP53 mutation (five patients without a TP53 mutation, TP-0903 + decitabine): none of the five patients without a TP53 mutation achieved CR
Overall composite remission rate (CR/CRi/CRh) (group 1, 37 mg TP-0903 + decitabine, 5/15): 33.3%
CR rate within six cycles (primary endpoint) [2]: 13.3% and 13%
CRh rate [2]: 20%
MLFS rate [2]: 7%
Stable disease (SD) rate [2]: 33%
Treatment failure rate [2]: 13%
Best response by 6 cycles: CR [3]: 2 (13.3) no. (%)
Best response by 6 cycles: CRh [3]: 3 (20) no. (%)
Best response by 6 cycles: CRi [3]: 0 (0) no. (%)
Best response by 6 cycles: MLFS [3]: 1 (6.7) no. (%)
Best response by 6 cycles: NE (not evaluable) [3]: 2 (13.3) no. (%)
Best response by 6 cycles: SD [3]: 5 (33.3) no. (%)
Best response by 6 cycles: Treatment failure [3]: 2 (13.3) no. (%)
Overall composite remission rate (CR/CRh/CRi) [3]: 5 (33.3, 11.8–61.6) no. (%, 95% CI)
Overall response rate (CR/CRh/CRi/MLFS) [3]: 6 (40, 16.3–67.7) no. (%, 95% CI)
Overall composite remission rate (CR/CRi/CRh) (group 2, 25 mg TP-0903 + decitabine, 6/12): 50%
CR rate within six cycles (primary endpoint) [4]: 25%
CRh rate [4]: 8%
CRi rate [4]: 17%
MLFS rate [4]: 8%
Patients who stopped treatment within four and 5 days because of AEs [4]: 17%
Stable disease (SD) rate [4]: 25%
Best response by 6 cycles: CR [5]: 3 (25) no. (%)
Best response by 6 cycles: CRh [5]: 1 (8.3) no. (%)
Best response by 6 cycles: CRi [5]: 2 (16.7) no. (%)
Best response by 6 cycles: MLFS [5]: 1 (8.3) no. (%)
Best response by 6 cycles: NE (not evaluable) [5]: 2 (16.7) no. (%)
Best response by 6 cycles: SD [5]: 3 (25) no. (%)
Best response by 6 cycles: Treatment failure [5]: 0 (0) no. (%)
Overall composite remission rate (CR/CRh/CRi) [5]: 6 (50, 21.1–78) no. (%, 95% CI)
Overall response rate (CR/CRh/CRi/MLFS) [5]: 7 (58.3, 27.7–84.8) no. (%, 95% CI)
Best response by 6 cycles: CR [6]: 5 (18.5) no. (%)
Best response by 6 cycles: CRh [6]: 4 (14.8) no. (%)
Best response by 6 cycles: CRi [6]: 2 (7.4) no. (%)
Best response by 6 cycles: MLFS [6]: 2 (7.4) no. (%)
Best response by 6 cycles: NE (not evaluable) [6]: 4 (14.8) no. (%)
Best response by 6 cycles: SD [6]: 8 (29.6) no. (%)
Best response by 6 cycles: Treatment failure [6]: 2 (7.4) no. (%)
Overall composite remission rate (CR/CRh/CRi) [6]: 11 (40.7, 22.4–61.2) no. (%, 95% CI)
Overall response rate (CR/CRh/CRi/MLFS) [6]: 13 (48.2, 28.7–68.1) no. (%, 95% CI)
Overall composite remission rate (CR/CRi/CRh) (patients with a TP53 mutation (n = 20), irrespective of group, 9/20): 45%
True CR rate (patients with mutant TP53 who received 25 mg TP-0903 + decitabine, 3 of 9): 33.3%
